In PubChem BioAssay (NCI) one finds TGI and GI50 data, which are given here for nine compounds.

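Compound exposure: 48 hours, 5 concentrations, 96-well plates. GI50 marks 50% less growth. Definition used: TGI = concentration required for complete inhibition of growth.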

Some test systems named below: COLO 205 colon; EKVX NSCLC; HOP-92 NSCLC; M14 melanoma; NCI-H23 lung; NCI-H460 lung; OVCAR-8 ovarian; SF-268 CNS; SK-MEL-5 melanoma; U251 CNS.
What all share (experiment): NCI anticancer screen, dose series, 48 h

With `N#CC1(C2SCCS2=O)C2=C(C(=O)c3ccccc3C2=O)N2CCCC21` (stereo not drawn), the TGI with COLO 205 colon turned out to be 5.71 µM; in the assay on EKVX NSCLC, 13.9 µM; in the assay on HOP-92 NSCLC it was 11.9 µM; in the assay with M14 melanoma, 2.77 µM; in the assay on NCI-H23 lung, 3.51 µM; in the assay on NCI-H460 lung, 11.8 µM. The TGI with OVCAR-8 ovarian worked out at 7.83 µM; in the assay with SF-268 CNS it was 11.2 µM; in the assay with SK-MEL-5 melanoma it was 1.1 µM; in the assay on U251 CNS, 11.3 µM.
Take `COc1ccc(/C=c2/sc3n(c2=O)C(c2ccc(OC)c(OC)c2)C2=C(N=3)c3cc(F)ccc3OC2)cc1` (stereo not drawn): the GI50 was 30.1 µM with COLO 205 colon; 39.7 µM in the assay with EKVX NSCLC; 14.3 µM in the assay with HOP-92 NSCLC; 36.9 µM in the assay with M14 melanoma; 3.69 µM in the assay with NCI-H23 lung; 19.3 µM with NCI-H460 lung. Besides, the GI50 with OVCAR-8 ovarian was 40.2 µM; in the assay with SF-268 CNS, 15.5 µM; in the assay with SK-MEL-5 melanoma it was 22.3 µM; with U251 CNS it was 20.9 µM. In addition, the TGI in the assay with COLO 205 colon is above 57.1 µM; with EKVX NSCLC, above 100 µM; with HOP-92 NSCLC, above 65 µM; with M14 melanoma, above 100 µM; in the assay with NCI-H23 lung it was 26.1 µM; in the assay with NCI-H460 lung, above 100 µM. Also, the TGI in the assay on OVCAR-8 ovarian was above 100 µM; in the assay with SF-268 CNS it was above 100 µM; in the assay on SK-MEL-5 melanoma, above 62.4 µM; with U251 CNS it was above 78.5 µM.
Regarding `CC(C)c1ccccc1S(=O)c1ccccc1C(C)(C)O` (stereo not drawn), the TGI with COLO 205 colon, in the assay on EKVX NSCLC, with HOP-92 NSCLC, with M14 melanoma, with NCI-H23 lung and in the assay on NCI-H460 lung was above 100 µM throughout. Besides, the TGI with OVCAR-8 ovarian is above 100 µM; in the assay with SF-268 CNS, above 100 µM; in the assay with SK-MEL-5 melanoma it was 81.5 µM; with U251 CNS it was 39.1 µM.
Consider `O=C(CN1CCCCC1)N1CCc2c([nH]c3ccccc23)C1c1cccnc1` (stereo not drawn), for which the TGI in the assay with EKVX NSCLC, with HOP-92 NSCLC, in the assay on M14 melanoma, in the assay with NCI-H23 lung, with NCI-H460 lung and in the assay on OVCAR-8 ovarian was above 100 µM throughout. In addition, the TGI in the assay with SF-268 CNS, in the assay with SK-MEL-5 melanoma and with U251 CNS was above 100 µM throughout.
Consider `O=C(Nc1ccc(Cl)cc1F)c1cc(Br)ccc1O`, for which the GI50 was 7.65 µM in the assay on COLO 205 colon; 1.46 µM in the assay on EKVX NSCLC; 0.183 µM in the assay on HOP-92 NSCLC; 0.751 µM in the assay with M14 melanoma; 0.659 µM in the assay on NCI-H23 lung; 0.653 µM in the assay with NCI-H460 lung. The GI50 was 1.13 µM with OVCAR-8 ovarian, 0.745 µM in the assay on SF-268 CNS, 0.3 µM with SK-MEL-5 melanoma and 0.913 µM in the assay on U251 CNS. The TGI was 21.5 µM in the assay with COLO 205 colon; above 26.1 µM in the assay with EKVX NSCLC; 0.67 µM in the assay on HOP-92 NSCLC; 3.75 µM in the assay on M14 melanoma; 4.69 µM in the assay on NCI-H23 lung; 18.3 µM with NCI-H460 lung. The TGI was above 37.4 µM in the assay with OVCAR-8 ovarian, 9.66 µM in the assay with SF-268 CNS, 1.07 µM in the assay on SK-MEL-5 melanoma and above 52.4 µM in the assay with U251 CNS.
For `N#CC1Nc2ccccc2[C@@H](O)C1O` (stereo partly drawn), the TGI in the assay with COLO 205 colon, in the assay with EKVX NSCLC, in the assay on HOP-92 NSCLC, in the assay with M14 melanoma, in the assay on NCI-H23 lung and in the assay on NCI-H460 lung was above 100 µM each time. In addition, the TGI with OVCAR-8 ovarian, with SF-268 CNS, in the assay on SK-MEL-5 melanoma and in the assay with U251 CNS was above 100 µM in each case.
For the compound `COc1ccc(CNc2c3ccccc3nc3ccccc23)cc1OC`, the GI50 in the assay with COLO 205 colon was 1.32 µM; in the assay with EKVX NSCLC, 2.7 µM; in the assay on HOP-92 NSCLC, 1.62 µM; in the assay with M14 melanoma, 1.97 µM; in the assay on NCI-H23 lung, 2.13 µM; with NCI-H460 lung, 2.49 µM. For the same compound, the GI50 was 2.17 µM in the assay on OVCAR-8 ovarian, 3.21 µM in the assay on SF-268 CNS, 1.87 µM with SK-MEL-5 melanoma and 2.98 µM in the assay with U251 CNS. Besides, the TGI in the assay on COLO 205 colon amounted to 3.82 µM; with EKVX NSCLC, 12.4 µM; in the assay on HOP-92 NSCLC, 7.83 µM; in the assay on M14 melanoma it was 4.76 µM; in the assay on NCI-H23 lung, 7.47 µM; in the assay on NCI-H460 lung, 6.51 µM. The TGI with OVCAR-8 ovarian was 12.1 µM; in the assay with SF-268 CNS, 13 µM; in the assay on SK-MEL-5 melanoma it was 3.64 µM; in the assay with U251 CNS it was 13.6 µM.
For the compound `O=C(CCCN1CC=C(n2c(=O)[nH]c3ccccc32)CC1)c1ccc(F)cc1`, the GI50 with COLO 205 colon is 25 µM; in the assay on EKVX NSCLC, 16.7 µM; in the assay on HOP-92 NSCLC, 45.3 µM; in the assay on M14 melanoma, 23 µM; in the assay on NCI-H23 lung, 37.6 µM; with NCI-H460 lung, 35.2 µM. Moreover, the GI50 is 32.9 µM in the assay with OVCAR-8 ovarian and 14.9 µM in the assay on SK-MEL-5 melanoma. The TGI was 75.5 µM with COLO 205 colon; 80.1 µM in the assay on EKVX NSCLC; above 100 µM in the assay with HOP-92 NSCLC; 65.5 µM with M14 melanoma; above 100 µM in the assay on NCI-H23 lung; above 100 µM with NCI-H460 lung. The TGI in the assay on OVCAR-8 ovarian is above 100 µM; in the assay on SK-MEL-5 melanoma, 28.6 µM.
In the case of `Cc1[nH][nH]c(=O)c1C=Nc1ccc(-c2nc3ccccc3[nH]2)cc1`, the GI50 is 19.5 µM with COLO 205 colon; 19.8 µM in the assay with EKVX NSCLC; above 100 µM in the assay with HOP-92 NSCLC; 30.6 µM in the assay with M14 melanoma; 33.3 µM in the assay on NCI-H460 lung; 20.7 µM in the assay with OVCAR-8 ovarian. Moreover, the results for the GI50 in the assay on SF-268 CNS, in the assay with SK-MEL-5 melanoma and in the assay on U251 CNS were 14.4 µM, 18 µM and 19 µM, respectively. The TGI with COLO 205 colon is 48.1 µM; with EKVX NSCLC, 51.1 µM; in the assay on HOP-92 NSCLC it was above 100 µM; in the assay with M14 melanoma, 50.9 µM; with NCI-H460 lung, above 100 µM; with OVCAR-8 ovarian, 54.6 µM. The values for the TGI in the assay on SF-268 CNS, with SK-MEL-5 melanoma and with U251 CNS were 51.1 µM, 36.2 µM and 44.7 µM, respectively.
